Experimental data from patent US20080280879A1, “SUBSTITUTED HETEROCYCLIC DERIVATIVES AND THEIR PHARMACEUTICAL USE AND COMPOSITIONS” (priority 2007, published 2008).
≈ marks a conversion by molar mass, not a printed value. Where “and” joins values, the source holds several entries; their conditions need not be identical. Equal entries are not always repeated.

Assays:
Type in all cases: cell-based, Staphylococcus aureus
[1] = tested on: Staph aureus 1031; experiment: MIC in Mueller-Hinton Broth with 50% pooled inactivated human serum, Assay 2, Table 12 column G; conditions: for MIC, column G: Staph aureus 1031, Assay 2, 50% human serum; for MIC: Staphylococcus aureus, 1031, Staph aureus 1031, Assay 2, 50% human serum
Description: (§1) The assays described herein include a panel of bacterial isolates of Staphylococcus aureus. Assay 1 comprises the strains noted in Columns A through E, and Assay 2 comprises the strains noted in Columns F through H. The assays are performed in microtiter trays according to Methods for Dilution Antimicrobial Susceptibility Tests for Bacteria that Grow Aerobically; Approved Standard-7th edition (M7-A7) and interpreted according to the Performance Standards for Antimicrobial Susceptibility Testing; 16th Informational Supplement (M100-S16) published by Clinical Laboratory Standards Institute (CLSI). The antibacterial activity is presented in the form of a minimum inhibitory concentration (MIC) value in μg/ml format. The MIC value represents the lowest concentration of drug measured which prevented macroscopically visible growth under the conditions and specific doses tested. The compounds were initially dissolved in DMSO as 30 mM stocks and diluted accordingly to adjust to a concentration of 10 mg/ml or the compounds were dissolved in DMSO at a concentration of 10 mg/ml. For assessment of activity in the presence of human serum, S. aureus 1146 and S. aureus 1031 were inoculated into Mueller-Hinton Broth with 50% pooled inactivated human serum. In some cases, compounds were tested more than once in a particular assay. Where noted, the MIC value shown in Table 12 represents the geometric mean of the data from multiple runs.
(§2) It should be understood that the data in columns A-H represents MIC data in μg/ml and the notation “<=” means ‘less than or equal to’.

[2] = tested on: Staph aureus 2812; experiment: MIC, microtiter broth dilution (CLSI M7-A7), Assay 1, Table 12 column E, no serum; conditions: Staph aureus 2812, Assay 1, no serum
Method in brief: (§3)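 Broth microdilution in microtiter trays per CLSI M7-A7, interpreted per M100-S16; MIC (μg/ml) is the lowest concentration preventing macroscopically visible growth. Compounds were dissolved in DMSO at 10 mg/ml. Serum-containing runs used Mueller-Hinton Broth with 50% pooled inactivated human serum; repeated runs are reported as geometric means.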

[3] = tested on: Staph aureus 1095 MRSA; experiment: MIC, microtiter broth dilution (CLSI M7-A7), Assay 1, Table 12 column A, no serum; conditions: Assay 1, no serum
Method in brief: as §3

[4] = tested on: Staph aureus 1031; experiment: MIC, microtiter broth dilution (CLSI M7-A7), Assay 2, Table 12 column F, no serum; conditions: for MIC, column F: Staph aureus 1031, Assay 2, no serum; for MIC: Staphylococcus aureus, 1031, Staph aureus 1031, Assay 2, no serum
Description: as §1, §2

[5] = tested on: Staph aureus 2811; experiment: MIC, microtiter broth dilution (CLSI M7-A7), Assay 1, Table 12 column D, no serum; conditions: Staph aureus 2811, Assay 1, no serum
Method in brief: as §3

[6] = tested on: Staph aureus 2810; experiment: MIC, microtiter broth dilution (CLSI M7-A7), Assay 2, Table 12 column H, no serum; conditions: for MIC, column H: Staph aureus 2810, Assay 2, no serum; for MIC: Staphylococcus aureus, 2810, Staph aureus 2810, Assay 2, no serum
Description: as §1, §2

[7] = tested on: Staph aureus 1146; experiment: MIC in Mueller-Hinton Broth with 50% pooled inactivated human serum, Assay 1, Table 12; conditions: Staph aureus 1146, Assay 1, 50% human serum
Method in brief: as §3

[8] = tested on: Staph aureus 1146; experiment: MIC, microtiter broth dilution (CLSI M7-A7), Assay 1, Table 12 column B, no serum; conditions: Staph aureus 1146, Assay 1, no serum
Method in brief: as §3

Compound | MIC [1] | MIC [4] | MIC [6] | also measured
COc1ccc2nccc(C(O)CC[C@@H]3CCN(C[C@@H]4C[C@H]4c4ccccc4)C[C@@H]3C(=O)O)c2c1 (stereo partly drawn) [Example 85, (3R,4R)-4-[3-hydroxy-3-(6-methoxyquinolin-4-yl)propyl]-1-{[(tans)-2-phenylcyclopropyl]methyl}piperidine-3-carboxylic acid] |  |  |  | MIC, column G [1]: 4 µg/mL (≈ 8.43 µM); MIC, column E [2]: 2 µg/mL (≈ 4.21 µM); MIC, column A [3]: 4 µg/mL (≈ 8.43 µM); MIC, column F [4]: 2 µg/mL (≈ 4.21 µM); MIC, column D [5]: 1.4142 µg/mL (≈ 2.98 µM); MIC, column H [6]: 2 µg/mL (≈ 4.21 µM); MIC, column C [7]: 5.6568 µg/mL (≈ 11.9 µM); MIC, column B [8]: 1.4142 µg/mL (≈ 2.98 µM)
COc1ccc2nccc(C(O)CC[C@@H]3CCN(C4CC(c5ccccc5)C4)C[C@@H]3C(=O)O)c2c1 (single isomer, unassigned) [Example 4] | 4 µg/mL (≈ 8.43 µM) |  |  | MIC, column E [2]: 1 µg/mL (≈ 2.11 µM); MIC, column A [3]: 2 µg/mL (≈ 4.21 µM); MIC, column F [4]: 0.5 µg/mL (≈ 1.05 µM); MIC, column D [5]: 1 µg/mL (≈ 2.11 µM); MIC, column H [6]: 0.5 µg/mL (≈ 1.05 µM); MIC, column C [7]: 4 µg/mL (≈ 8.43 µM); MIC, column B [8]: 1 µg/mL (≈ 2.11 µM)
COc1ccc2nccc(C(O)CC[C@@H]3CCN(CC4CCc5nc(CC6CC6)ncc5C4)C[C@@H]3C(=O)O)c2c1 (stereo partly drawn) [Example 117, (3R,4R)-1-{[2-(cyclopropylmethyl)-5,6,7,8-tetrahydroquinazolin-6-yl]methyl}-4-[3-hydroxy-3-(6-methoxyquinolin-4-yl)propyl]piperidine-3-carboxylic acid] | > 64 µg/mL | > 64 µg/mL | > 64 µg/mL | 
COc1ccc2nccc([C@@H](O)CNC3(C(=O)O)CCCN(C4CC(c5ccccc5)C4)CC3)c2n1 (stereo partly drawn) [Example 159, 4-{[(2R)-2-hydroxy-2-(6-methoxy-1,5-naphthyridin-4-yl)ethyl]amino}1-(3-phenylcyclobutyl)azepane-4-carboxylic acid] | 16 µg/mL (≈ 32.6 µM) | 4 µg/mL (≈ 8.15 µM) | 4 µg/mL (≈ 8.15 µM) | 
COc1ccc2ncc(Cl)c(CCNC3(C(=O)O)CCCN(CC4CCc5nc(C)ncc5C4)CC3)c2c1 (stereo not shown) [Example 158, 4-{[2-(3-chloro-6-methoxyquinolin-4-yl)ethyl]amino}-1-[(2-methyl-5,6,7,8-tetra hydroquinazolin-6-yl)methyl]azepane-4-carboxylic acid] | > 64 µg/mL | 32 µg/mL (≈ 59.5 µM) | 32 µg/mL (≈ 59.5 µM) | 
COc1ccc2nccc(C(O)CC[C@@H]3CCN(C4Cc5cccc(Br)c5C4)C[C@@H]3C(=O)O)c2c1 (stereo partly drawn) [Example 81, (3R,4R)-1-(4-bromo-2,3-dihydro-1H-inden-2-yl)-4-(3-hydroxy-3-(6-methoxyquinolin-4-yl)propyl)piperidine-3-carboxylic acid] | > 64 µg/mL | 4 µg/mL (≈ 7.41 µM) | 4 µg/mL (≈ 7.41 µM) | 
COc1ccc2nccc(C(O)CC[C@@H]3CCN(CC4(O)Cc5ccccc5C4)C[C@@H]3C(=O)O)c2c1 (stereo partly drawn) [Example 84, (3R,4R)-1-((2-hydroxy-2,3-dihydro-1H-inden-2-yl)methyl)-4-(3-hydroxy-3-(6-methoxyquinolin-4-yl)propyl)piperidine-3-carboxylic acid] | > 64 µg/mL | > 64 µg/mL | > 64 µg/mL | 
COC(=O)C1(NC[C@H](O)c2ccnc3ccc(OC)nc23)CCCN(C2CC(c3ccccc3)C2)CC1 (stereo partly drawn) [Example 160, methyl 4-((R)-2-hydroxy-2-(6-methoxy-1,5-naphthyridin-4-yl)ethylamino)-1-(3-phenylcyclobutyl)azepane-4-carboxylate] | 4 µg/mL (≈ 7.93 µM) | 2 µg/mL (≈ 3.96 µM) | 2 µg/mL (≈ 3.96 µM) | 
COC(=O)[C@H]1CN(CC2Cc3ccccc3C2)CC[C@H]1CCC(O)c1ccnc2ccc(OC)cc12 (stereo partly drawn) [Example 82, (3R,4R)-methyl 1-((2,3-dihydro-1H-inden-2-yl)methyl)-4-(3-hydroxy-3-(6-methoxyquinolin-4-yl)propyl)piperidine-3-carboxylate] | 32 µg/mL (≈ 65.5 µM) | 8 µg/mL (≈ 16.4 µM) | 16 µg/mL (≈ 32.7 µM) | 
COC(=O)[C@H]1CN(C2CCc3cc(F)ccc32)CC[C@H]1CCC(O)c1ccnc2ccc(OC)cc12 (stereo partly drawn) [Example 73, methyl (3R,4R)-1-(5-fluoro-2,3-dihydro-1H-inden-1-yl)-4-[3-hydroxy-3-(6-methoxyquinolin-yl)propyl]piperidine-3-carboxylate] |  |  |  | MIC, column G [1]: >64 µg/mL; MIC, column F [4]: >64 µg/mL; MIC, column H [6]: >64 µg/mL
COc1ccc2nccc(C(O)CC[C@@H]3CCN(CC4Cc5ccccc5C4)C[C@@H]3C(=O)O)c2c1 (stereo partly drawn) [Example 83, (3R,4R)-1-((2,3-dihydro-1H-inden-2-yl)methyl)-4-(3-hydroxy-3-(6-methoxyquinolin-4-yl)propyl)piperidine-3-carboxylic acid] | 64 µg/mL (≈ 135 µM) | 8 µg/mL (≈ 16.9 µM) | 8 µg/mL (≈ 16.9 µM) | 
COc1ccc2nccc(C(O)CC[C@@H]3CCN(C4CCc5cc(F)ccc54)C[C@@H]3C(=O)O)c2c1 (stereo partly drawn) [Example 74, (3R,4R)-1-(5-fluoro-2,3-dihydro-1H-inden-1-yl)-4-(3-hydroxy-3-(6-methoxyquinolin-4-yl)propyl)piperidine-3-carboxylic acid] | > 64 µg/mL | > 64 µg/mL | > 64 µg/mL | 
COc1ccc2nccc(C(O)CC[C@@H]3CCN(C4CC(OCc5ccccc5)C4)C[C@@H]3C(=O)O)c2c1 (stereo partly drawn) [Example 20, (3R,4R)-1-[3-(benzyloxy)cyclobutyl]-4-[3-hydroxy-3-(6-methoxyquinolin-4-yl)propyl]piperidine-3-carboxylic acid] | 64 µg/mL (≈ 127 µM) | 16 µg/mL (≈ 31.7 µM) | 16 µg/mL (≈ 31.7 µM) | 
COc1ccc2nccc(C(O)CC[C@@H]3CCN(CC4CCc5nc(C(C)C)ncc5C4)C[C@@H]3C(=O)O)c2c1 (stereo partly drawn) [Example 116, (3R,4R)-4-[3-hydroxy-3-(6-methoxyquinolin-4-yl)propyl]-1-[(2-isopropyl-5,6,7,8-tetrahydroquinazolin-6-yl)methyl]piperidine-3-carboxylic acid] | > 64 µg/mL | > 64 µg/mL | > 64 µg/mL | 
COc1ccc2nccc(C(O)CC[C@@H]3CCN(C4CN(c5ccccn5)C4)C[C@@H]3C(=O)O)c2c1 (stereo partly drawn) [Example 125, (3R,4R)-4-[3-hydroxy-3-(6-methoxyquinolin-4-yl)propyl]-1-(1-pyridin-2-ylazetidin-3-yl)piperidine-3-carboxylic acid] | > 64 µg/mL | > 64 µg/mL | 32 µg/mL (≈ 67.1 µM) | 
4-{[2-(3-chloro-6-methoxyquinolin-4-yl)ethyl]mino}-1-(3-phenylcyclobutyl) azepane-4-carboxylic acid [Example 152] |  |  |  | MIC, column G [1]: 2 µg/mL; MIC, column F [4]: <=.0625 μg/ml; MIC, column D [5]: <=.0625 μg/ml; MIC, column H [6]: 0.125 µg/mL; MIC, column C [7]: 1 µg/mL and 2 µg/mL; MIC, column B [8]: 0.125 µg/mL
COc1ccc2nccc(C(O)CC[C@@H]3CCN(C4Cc5ccc(Cl)cc5C4)C[C@@H]3C(=O)O)c2c1 (stereo partly drawn) [Example 80, (3R,4R)-1-(5-chloro-2,3-dihydro-1H-inden-2-yl)-4-(3-hydroxy-3-(6-methoxyquinolin-4-yl)propyl)piperidine-3-carboxylic acid] | > 64 µg/mL | 1 µg/mL (≈ 2.02 µM) | 1 µg/mL (≈ 2.02 µM) | 
COc1ccc2nccc([C@@H](O)CC[C@@H]3CCN(C4CCc5cc(F)ccc54)C[C@@H]3C(=O)O)c2c1 (single isomer, unassigned) [Example 75] | > 64 µg/mL | > 64 µg/mL | > 64 µg/mL | 
COc1ccc2nccc(C(O)CC[C@@H]3CCN(CC4CCc5nc(N6CCCCC6)ncc5C4)C[C@@H]3C(=O)O)c2c1 (stereo partly drawn) [Example 120, (3R,4R)-4-[3-hydroxy-3-(6-methoxyquinolin-4-yl)propyl]-1-[(2-piperidin-1-yl-5,6,7,8-tetrahydroquinazolin-6-yl)methyl]piperidine-3-carboxylic acid] | > 64 µg/mL | > 64 µg/mL | > 64 µg/mL | 
COc1ccc2nccc(C(O)CC[C@@H]3CCN(C4CCCc5ccccc54)C[C@@H]3C(=O)O)c2c1 (stereo partly drawn) [Example 77, (3R,4R)-4-(3-hydroxy-3-(6-methoxyquinolin-4-yl)propyl)-1-(1,2,3,4-tetrahydronaphthalen-1-yl)piperidine-3-carboxylic acid] | > 64 µg/mL | > 64 µg/mL | > 64 µg/mL | 
COc1ccc2nccc(C(O)CC[C@@H]3CCN(C4Cc5ccccc5C4)C[C@@H]3C(=O)O)c2c1 (stereo partly drawn) [Example 79, (3R,4R)-1-(2,3-dihydro-1H-inden-2-yl)-4-(3-hydroxy-3-(6-methoxyquinolin-4-yl)propyl)piperidine-3-carboxylic acid] | 64 µg/mL (≈ 139 µM) | 8 µg/mL (≈ 17.4 µM) | 8 µg/mL (≈ 17.4 µM) | 
